Test [1] concerns the target EGFR L858R/T790M/C797S (Homo sapiens, UniProt P00533, C797S/L858R/T790M). Briefly: Biochemical EGFR kinase assay (Lance Ultra TR-FRET), triple mutant L858R/T790M/C797S. In short, it runs like this: (§1)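 In this biochemical assay, phosphorylation after a one-hour room-temperature reaction was detected with europium-labelled anti-phosphopeptide antibody at 2 nM final concentration.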
On the technique in general: TR-FRET usually uses a lanthanide donor and a delayed reading to cut background.

Test [2] addresses EGFR L858R/C797S (Homo sapiens, UniProt P00533, C797S/L858R). As to the kind of experiment: Biochemical EGFR kinase assay (Lance Ultra TR-FRET), double mutant L858R/C797S. An outline of the steps:
as §1

The target of test [3] is EGFR del19/C797S (Homo sapiens, UniProt P00533, C797S/DEL746-750). Briefly: Biochemical EGFR kinase assay (Lance Ultra TR-FRET), double mutant del19/C797S. An outline of the steps:
as §1

In test [4] the target is EGFR del19/T790M/C797S (Homo sapiens, UniProt P00533, C797S/DEL746-750/T790M). As to the kind of experiment: Biochemical EGFR kinase assay (Lance Ultra TR-FRET), triple mutant del19/T790M/C797S. An outline of the steps:
as §1

The target in test [5] is EGFR wildtype (WT) (Homo sapiens, UniProt P00533). Briefly: Biochemical EGFR kinase assay (Lance Ultra TR-FRET), wildtype. In short, it runs like this: as §1
Chain of EGFR wildtype (WT) (P00533 25-1210): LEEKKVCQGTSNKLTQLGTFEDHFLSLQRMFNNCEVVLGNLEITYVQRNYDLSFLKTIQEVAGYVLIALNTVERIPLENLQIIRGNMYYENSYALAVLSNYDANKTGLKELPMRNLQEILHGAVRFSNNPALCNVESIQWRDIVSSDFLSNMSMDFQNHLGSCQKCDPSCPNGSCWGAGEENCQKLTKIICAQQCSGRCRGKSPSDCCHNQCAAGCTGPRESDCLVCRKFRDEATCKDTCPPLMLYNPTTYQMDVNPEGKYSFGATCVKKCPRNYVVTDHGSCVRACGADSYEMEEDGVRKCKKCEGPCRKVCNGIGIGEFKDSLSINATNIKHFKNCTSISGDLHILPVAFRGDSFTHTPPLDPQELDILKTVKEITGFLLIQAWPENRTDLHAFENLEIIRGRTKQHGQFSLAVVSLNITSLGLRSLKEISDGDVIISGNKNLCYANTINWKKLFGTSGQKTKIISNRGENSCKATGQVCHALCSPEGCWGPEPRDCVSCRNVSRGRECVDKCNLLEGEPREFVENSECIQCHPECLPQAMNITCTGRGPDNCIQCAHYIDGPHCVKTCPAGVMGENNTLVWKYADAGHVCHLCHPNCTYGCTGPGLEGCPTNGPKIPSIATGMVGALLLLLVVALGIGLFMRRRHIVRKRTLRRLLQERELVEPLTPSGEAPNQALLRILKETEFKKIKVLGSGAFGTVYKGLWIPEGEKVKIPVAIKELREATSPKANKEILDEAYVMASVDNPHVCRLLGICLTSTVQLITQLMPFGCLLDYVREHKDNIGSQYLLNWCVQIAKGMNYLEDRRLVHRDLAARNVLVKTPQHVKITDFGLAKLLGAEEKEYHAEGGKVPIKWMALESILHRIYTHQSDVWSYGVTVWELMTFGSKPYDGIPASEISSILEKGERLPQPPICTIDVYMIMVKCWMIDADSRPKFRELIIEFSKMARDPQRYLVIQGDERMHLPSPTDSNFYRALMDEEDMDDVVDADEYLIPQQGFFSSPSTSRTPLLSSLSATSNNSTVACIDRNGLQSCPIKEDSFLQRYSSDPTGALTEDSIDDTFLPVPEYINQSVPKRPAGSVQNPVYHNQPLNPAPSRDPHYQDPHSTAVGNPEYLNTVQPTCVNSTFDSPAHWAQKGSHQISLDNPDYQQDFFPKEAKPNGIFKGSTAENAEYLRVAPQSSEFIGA
Where [6] appears, read: Km ATP, read-out: IC50 L858R/T790M/C797S, Km ATP.
[7] abbreviates: Km ATP, read-out: IC50 L858R/C797S, Km ATP.
Setting [8] is: Km ATP, read-out: IC50 del19/C797S, Km ATP.
Setting [9] is: Km ATP, read-out: IC50 del19/T790M/C797S, Km ATP.
Where [10] appears, read: Km ATP, read-out: IC50 WT, Km ATP.
[11] abbreviates: Km ATP, read-out: IC50 L858R/T790M/C797S (nM) Km ATP.
[12] abbreviates: Km ATP, read-out: IC50 L858R/C797S (nM) Km ATP.
Where [13] appears, read: Km ATP, read-out: IC50 del19/C797S (nM) Km ATP.
The mark [14] stands for this setting: Km ATP, read-out: IC50 del19/T790M/C797S (nM) Km ATP.
Setting [15] is: Km ATP, read-out: IC50 WT (nM) Km ATP.
The mark [16] stands for this setting: IC50 L858R/T790M/C797S (nM) 100 μM ATP, 100 μM ATP.
The mark [17] stands for this setting: IC50 L858R/C797S (nM) 100 μM ATP, 100 μM ATP.
[18] abbreviates: IC50 del19/C797S (nM) 100 μM ATP, 100 μM ATP.
The mark [19] stands for this setting: IC50 del19/T790M/C797S (nM) 100 μM ATP, 100 μM ATP.
Where [20] appears, read: IC50 WT (nM) 100 μM ATP, 100 μM ATP.

Structures are written as SMILES. pIC50: −log10 of the molar value. Where two headings read alike, the source gives them in different places. Bounds are passed on as bounds.

Chain of EGFR del19/C797S (P00533 with tags, fused parts or gaps DEL746-750/C797S): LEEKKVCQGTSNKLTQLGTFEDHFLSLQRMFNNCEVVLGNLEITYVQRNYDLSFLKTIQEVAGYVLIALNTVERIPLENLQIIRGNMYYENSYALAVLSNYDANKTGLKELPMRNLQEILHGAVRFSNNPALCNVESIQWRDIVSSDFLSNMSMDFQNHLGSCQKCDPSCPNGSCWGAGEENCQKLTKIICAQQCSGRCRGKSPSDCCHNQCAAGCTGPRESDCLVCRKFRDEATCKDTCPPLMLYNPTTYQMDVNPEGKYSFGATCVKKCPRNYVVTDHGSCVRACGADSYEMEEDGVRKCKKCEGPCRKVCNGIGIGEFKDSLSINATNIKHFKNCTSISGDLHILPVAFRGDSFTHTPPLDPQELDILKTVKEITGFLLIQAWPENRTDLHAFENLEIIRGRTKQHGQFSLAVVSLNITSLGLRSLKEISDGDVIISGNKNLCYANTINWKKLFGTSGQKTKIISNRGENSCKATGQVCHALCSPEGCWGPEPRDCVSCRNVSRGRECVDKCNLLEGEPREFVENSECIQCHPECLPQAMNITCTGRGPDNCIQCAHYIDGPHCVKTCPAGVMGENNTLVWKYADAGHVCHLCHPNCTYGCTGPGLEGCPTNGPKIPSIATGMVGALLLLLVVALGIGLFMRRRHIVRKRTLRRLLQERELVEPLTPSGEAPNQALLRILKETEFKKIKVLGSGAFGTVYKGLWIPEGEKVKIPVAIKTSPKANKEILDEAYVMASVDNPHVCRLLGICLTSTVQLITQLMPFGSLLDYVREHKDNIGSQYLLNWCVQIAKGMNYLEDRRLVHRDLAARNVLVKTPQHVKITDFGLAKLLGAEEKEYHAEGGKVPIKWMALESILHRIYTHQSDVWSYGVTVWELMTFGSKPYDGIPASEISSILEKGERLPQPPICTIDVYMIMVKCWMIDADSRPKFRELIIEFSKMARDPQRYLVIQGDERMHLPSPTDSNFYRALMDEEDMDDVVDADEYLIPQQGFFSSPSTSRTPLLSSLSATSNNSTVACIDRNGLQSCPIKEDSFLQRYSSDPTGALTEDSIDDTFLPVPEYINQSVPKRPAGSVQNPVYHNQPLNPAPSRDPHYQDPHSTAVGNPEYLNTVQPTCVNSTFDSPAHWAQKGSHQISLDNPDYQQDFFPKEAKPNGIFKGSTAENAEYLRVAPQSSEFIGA
Chain of EGFR del19/T790M/C797S (P00533 with tags, fused parts or gaps DEL746-750/T790M/C797S): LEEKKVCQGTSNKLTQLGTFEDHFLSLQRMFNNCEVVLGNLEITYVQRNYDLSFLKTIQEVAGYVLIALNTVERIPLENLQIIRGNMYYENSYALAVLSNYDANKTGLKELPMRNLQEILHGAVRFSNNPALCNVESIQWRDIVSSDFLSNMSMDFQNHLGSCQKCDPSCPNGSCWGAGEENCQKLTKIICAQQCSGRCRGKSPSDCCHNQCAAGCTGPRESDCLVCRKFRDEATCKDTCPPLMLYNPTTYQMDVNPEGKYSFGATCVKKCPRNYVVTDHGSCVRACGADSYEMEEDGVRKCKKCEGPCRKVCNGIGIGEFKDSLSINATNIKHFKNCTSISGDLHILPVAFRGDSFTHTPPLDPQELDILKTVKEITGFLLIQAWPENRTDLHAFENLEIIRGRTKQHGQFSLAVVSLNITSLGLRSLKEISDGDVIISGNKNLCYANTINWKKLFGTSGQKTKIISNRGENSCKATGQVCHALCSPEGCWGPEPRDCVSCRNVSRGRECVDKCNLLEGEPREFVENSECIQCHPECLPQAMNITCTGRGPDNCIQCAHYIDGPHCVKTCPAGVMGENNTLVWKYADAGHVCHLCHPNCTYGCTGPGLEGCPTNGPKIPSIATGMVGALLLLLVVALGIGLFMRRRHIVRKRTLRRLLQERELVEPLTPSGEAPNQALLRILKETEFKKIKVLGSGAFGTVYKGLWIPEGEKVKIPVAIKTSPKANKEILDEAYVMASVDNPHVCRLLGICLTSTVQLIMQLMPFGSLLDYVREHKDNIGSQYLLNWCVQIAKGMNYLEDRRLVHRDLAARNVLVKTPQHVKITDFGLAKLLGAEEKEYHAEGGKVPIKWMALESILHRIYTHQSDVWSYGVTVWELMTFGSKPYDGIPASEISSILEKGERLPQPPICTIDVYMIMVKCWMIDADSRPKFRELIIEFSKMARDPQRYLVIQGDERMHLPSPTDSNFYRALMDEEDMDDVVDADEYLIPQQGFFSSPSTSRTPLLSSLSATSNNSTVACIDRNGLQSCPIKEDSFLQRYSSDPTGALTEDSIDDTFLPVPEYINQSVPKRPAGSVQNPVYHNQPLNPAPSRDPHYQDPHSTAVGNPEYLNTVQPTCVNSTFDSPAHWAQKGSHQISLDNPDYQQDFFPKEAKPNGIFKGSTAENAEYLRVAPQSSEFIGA
Chain of EGFR L858R/T790M/C797S (P00533 25-1210 T790M/C797S/L858R): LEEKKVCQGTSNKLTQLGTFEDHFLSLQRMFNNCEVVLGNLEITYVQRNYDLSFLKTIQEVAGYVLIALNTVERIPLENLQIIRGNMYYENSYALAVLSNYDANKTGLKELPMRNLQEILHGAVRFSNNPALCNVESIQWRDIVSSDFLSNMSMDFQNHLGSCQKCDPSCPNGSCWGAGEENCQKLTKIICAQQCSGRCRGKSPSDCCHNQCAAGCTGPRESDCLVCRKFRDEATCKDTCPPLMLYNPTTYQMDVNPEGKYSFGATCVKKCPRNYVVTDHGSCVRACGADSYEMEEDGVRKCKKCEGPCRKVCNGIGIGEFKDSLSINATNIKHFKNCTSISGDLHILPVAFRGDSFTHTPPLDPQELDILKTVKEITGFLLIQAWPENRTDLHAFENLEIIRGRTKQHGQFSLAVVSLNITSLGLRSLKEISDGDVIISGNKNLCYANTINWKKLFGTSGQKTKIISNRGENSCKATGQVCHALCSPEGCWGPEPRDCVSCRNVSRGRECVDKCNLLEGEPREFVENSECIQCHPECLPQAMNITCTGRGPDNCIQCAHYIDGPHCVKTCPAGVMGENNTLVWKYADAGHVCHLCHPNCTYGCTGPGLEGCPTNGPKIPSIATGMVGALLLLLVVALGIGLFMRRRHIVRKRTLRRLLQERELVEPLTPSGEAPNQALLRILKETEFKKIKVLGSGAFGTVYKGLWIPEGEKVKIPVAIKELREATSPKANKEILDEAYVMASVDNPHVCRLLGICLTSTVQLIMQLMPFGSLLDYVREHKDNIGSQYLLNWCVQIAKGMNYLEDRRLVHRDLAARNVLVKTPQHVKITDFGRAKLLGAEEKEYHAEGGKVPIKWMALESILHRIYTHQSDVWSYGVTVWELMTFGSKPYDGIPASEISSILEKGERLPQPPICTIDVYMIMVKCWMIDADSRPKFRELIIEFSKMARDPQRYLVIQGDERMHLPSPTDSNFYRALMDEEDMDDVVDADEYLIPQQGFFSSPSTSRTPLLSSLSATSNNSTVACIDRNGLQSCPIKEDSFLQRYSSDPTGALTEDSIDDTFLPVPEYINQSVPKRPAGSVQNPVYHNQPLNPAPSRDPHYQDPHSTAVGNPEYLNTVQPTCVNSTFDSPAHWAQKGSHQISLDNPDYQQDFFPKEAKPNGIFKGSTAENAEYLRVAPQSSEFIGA

Turning to `Cn1nc(-c2cnc(Nc3ccnc(-c4cnn(S(=O)(=O)C5CC5)c4)c3)nc2N[C@H]2CC[C@@](C)(O)CC2)cc1C(F)(F)F` [Example 356, (1s,4s)-4-((2-((2-(1-(Cyclopropylsulfonyl)-1H-pyrazol-4-yl)pyridin-4-yl)amino)-5-(1-methyl-5-(trifluoromethyl)-1H-pyrazol-3-yl)pyrimidin-4-yl)amino)-1-methylcyclohexan-1-ol], the pIC50 in test [1] (setting [6]) is 8.74; in test [2] (setting [7]), 7.92; in test [3] (setting [8]) it was 8.01; in test [4] (setting [9]), 8.96; in test [5] (setting [10]), 7.02.
In the case of `O=S(=O)(C1CC1)n1cc(-c2nccc(Nc3cc(NC4CCN(CCF)CC4)c(-c4ccn(C(F)F)n4)cn3)n2)cn1` [Example 217, N^2-(2-(1-(Cyclopropylsulfonyl)-1H-pyrazol-4-yl)pyrimidin-4-yl)-5-(1-(difluoromethyl)-1H-pyrazol-3-yl)-N^4-(1-(2-fluoroethyl)piperidin-4-yl)pyridine-2,4-diamine], the IC50 came to 0.4 nM in test [1] (setting [11]); 23.7 nM in test [2] (setting [12]); 28.7 nM in test [3] (setting [13]); 0.2 nM in test [4] (setting [14]); 454 nM in test [5] (setting [15]).
In the case of `O=C1CC[C@]2(CC[C@H](Nc3cc(Nc4ccnc(-c5cnn(S(=O)(=O)C6CC6)c5)n4)ncc3-c3ccn(C(F)F)n3)CC2)N1` [Example 19, (5s,8s)-8-((2-((2-(1-(Cyclopropylsulfonyl)-1H-pyrazol-4-yl)pyrimidin-4-yl)amino)-5-(1-(difluoromethyl)-1H-pyrazol-3-yl)pyridin-4-yl)amino)-1-azaspiro[4.5]decan-2-one], the IC50 in test [1] (setting [16]) stood at 0.5 nM; in test [1] (setting [11]), 0.1 nM; in test [2] (setting [17]) it was 3.5 nM; in test [2] (setting [12]), 0.7 nM; in test [3] (setting [18]) it was 0.7 nM; in test [3] (setting [13]), 0.5 nM. Besides, the IC50 was 0.3 nM in test [4] (setting [19]), 0.3 nM in test [4] (setting [14]), > 10000 nM in test [5] (setting [20]) and 10 nM in test [5] (setting [15]).
Regarding `CN(C)CCCn1ccc(-c2cnc(Nc3ccnc(-c4cnn(S(=O)(=O)C5CC5)c4)n3)cc2N[C@H]2CC[C@@H](NCCF)CC2)n1` [Example 301, N^2-(2-(1-(Cyclopropylsulfonyl)-1H-pyrazol-4-yl)pyrimidin-4-yl)-5-(1-(3-(dimethylamino)propyl)-1H-pyrazol-3-yl)-N^4-((1s,4s)-4-((2-fluoroethyl)amino)cyclohexyl)pyridine-2,4-diamine], the IC50 came to 0.1 nM in test [1] (setting [16]); 3.5 nM in test [2] (setting [17]); 0.4 nM in test [3] (setting [18]); 0.1 nM in test [4] (setting [19]); 1370 nM in test [5] (setting [20]).
`CN[C@H]1CC[C@H](CNc2cc(Nc3ccnc(-c4cnn(S(=O)(=O)C5CC5)c4)n3)ncc2-c2ccn(C(F)F)n2)CC1` [Example 193, N^2-(2-(1-(Cyclopropylsulfonyl)-1H-pyrazol-4-yl)pyrimidin-4-yl)-5-(1-(difluoromethyl)-1H-pyrazol-3-yl)-N^4-(((1r,4r)-4-(methylamino)cyclohexyl)methyl)pyridine-2,4-diamine]: the IC50 in test [1] (setting [16]) is 0.1 nM; in test [1] (setting [11]), 0.1 nM; in test [2] (setting [17]), 7.2 nM; in test [2] (setting [12]) it was 1 nM; in test [3] (setting [18]) it was 0.7 nM; in test [3] (setting [13]) it was 0.3 nM. Also, the IC50 in test [4] (setting [19]) came to 0.2 nM; in test [4] (setting [14]), 0.2 nM; in test [5] (setting [20]), 2050 nM; in test [5] (setting [15]), 4 nM.
On to `CC1(O)CCC(Nc2cc(Nc3ccnc(N4CCC(O)C(F)(F)C4)n3)ncc2-c2ccn(C(F)F)n2)CC1` (centres unmarked) [Example 348, 1-(4-((5-(1-(Difluoromethyl)-1H-pyrazol-3-yl)-4-(((1s,4s)-4-hydroxy-4-methylcyclohexyl)amino)pyridin-2-yl)amino)pyrimidin-2-yl)-3,3-difluoropiperidin-4-ol], for which the pIC50 in test [1] (IC50 L858R/T790M/C797S, 100 μM ATP) was 9.22; in test [1] (setting [6]) it was 9.70; in test [2] (IC50 L858R/C797S, 100 μM ATP), 6.83; in test [2] (setting [7]), 7.84; in test [3] (IC50 del19/C797S, 100 μM ATP) it was 6.87; in test [3] (setting [8]) it was 6.87. In addition, the pIC50 is 8.46 in test [4] (IC50 del19/T790M/C797S, 100 μM ATP); 9.30 in test [4] (setting [9]); < 5.00 in test [5] (IC50 WT, 100 μM ATP); 6.84 in test [5] (setting [10]).
Turning to `C[C@]1(O)CC[C@@H](Nc2nc(Nc3ccnc(-c4cnn(S(=O)(=O)C5CC5)c4)c3)ncc2-c2ccn(CC(F)(F)F)n2)CC1` [Example 360, (1s,4s)-4-((2-((2-(1-(Cyclopropylsulfonyl)-1H-pyrazol-4-yl)pyridin-4-yl)amino)-5-(1-(2,2,2-trifluoroethyl)-1H-pyrazol-3-yl)pyrimidin-4-yl)amino)-1-methylcyclohexan-1-ol], the pIC50 in test [1] (setting [6]) was 9.05; in test [2] (setting [7]), 7.78; in test [3] (setting [8]), 8.02; in test [4] (setting [9]), 9.30; in test [5] (setting [10]), 6.85.
For the compound `C[C@]1(O)CC[C@@H](Nc2cc(Nc3ccnc(-c4cnn(CC(F)F)c4)n3)ncc2-c2ccn(C(F)(F)F)n2)CC1` [Example 340, (1s,4s)-4-((2-((2-(1-(2,2-Difluoroethyl)-1H-pyrazol-4-yl)pyrimidin-4-yl)amino)-5-(1-(trifluoromethyl)-1H-pyrazol-3-yl)pyridin-4-yl)amino)-1-methylcyclohexan-1-ol], the pIC50 in test [1] (setting [6]) is 9.52; in test [2] (setting [7]) it was 8.17; in test [3] (setting [8]), 7.67; in test [4] (setting [9]), 9.30; in test [5] (setting [10]), 6.76.
`O=S(=O)(C1CC1)n1cc(-c2nccc(Nc3cc(N[C@H]4CC[C@](O)(CO)CC4)c(-c4ccn(C(F)F)n4)cn3)n2)cn1` [Example 188, (1s,4s)-4-((2-((2-(1-(Cyclopropylsulfonyl)-1H-pyrazol-4-yl)pyrimidin-4-yl)amino)-5-(1-(difluoromethyl)-1H-pyrazol-3-yl)pyridin-4-yl)amino)-1-(hydroxymethyl)cyclohexan-1-ol]: the IC50 in test [1] (setting [16]) came out at 0.2 nM; in test [1] (setting [11]) it was 0.1 nM; in test [2] (setting [17]), 7.8 nM; in test [2] (setting [12]), 1.1 nM; in test [3] (setting [18]) it was 0.3 nM; in test [3] (setting [13]), 0.3 nM. Further, the IC50 in test [4] (setting [19]) is 0.2 nM; in test [4] (setting [14]), 0.3 nM; in test [5] (setting [20]) it was > 10000 nM; in test [5] (setting [15]), 6.1 nM.
For `Cn1ccc(-c2cnc(Nc3ccnc(-c4cnn(S(=O)(=O)C5CC5)c4)n3)cc2N[C@H]2CC[C@@H](NCC(F)F)CC2)n1` [Example 45, N^2-(2-(1-(Cyclopropylsulfonyl)-1H-pyrazol-4-yl)pyrimidin-4-yl)-N^4-((1s,4s)-4-((2,2-difluoroethyl)amino)cyclohexyl)-5-(1-methyl-1H-pyrazol-3-yl)pyridine-2,4-diamine], the IC50 is 0.2 nM in test [1] (setting [16]); 0.2 nM in test [1] (setting [11]); 2.8 nM in test [2] (setting [17]); 0.7 nM in test [2] (setting [12]); 0.4 nM in test [3] (setting [18]); 0.6 nM in test [3] (setting [13]). For the same compound, the IC50 in test [4] (setting [19]) stood at 0.2 nM; in test [4] (setting [14]), 0.6 nM; in test [5] (setting [20]), 918 nM; in test [5] (setting [15]) it was 2.2 nM.
With `CN(C)C(=O)[C@H]1CC[C@@H](Nc2cc(Nc3ccnc(-c4cnn(S(=O)(=O)C5CC5)c4)n3)ncc2-c2ccn(C(F)F)n2)CC1` [Example 201, (1s,4s)-4-((2-((2-(1-(Cyclopropylsulfonyl)-1H-pyrazol-4-yl)pyrimidin-4-yl)amino)-5-(1-(difluoromethyl)-1H-pyrazol-3-yl)pyridin-4-yl)amino)-N,N-dimethylcyclohexane-1-carboxamide], the IC50 in test [1] (setting [16]) turned out to be 0.5 nM; in test [1] (setting [11]), 0.3 nM; in test [2] (setting [17]), 2.9 nM; in test [2] (setting [12]), 0.7 nM; in test [3] (setting [18]), 2.1 nM; in test [3] (setting [13]) it was 1.1 nM. For the same compound, the IC50 is 0.5 nM in test [4] (setting [19]), 0.8 nM in test [4] (setting [14]) and > 10000 nM in test [5] (setting [20]).
Consider `Cn1nc(-c2cnc(Nc3ccnc(-c4cnn(CC(F)F)c4)n3)cc2N[C@H]2CC[C@@](C)(O)CC2)cc1C(F)(F)F` [Example 331, (1s,4s)-4-((2-((2-(1-(2,2-Difluoroethyl)-1H-pyrazol-4-yl)pyrimidin-4-yl)amino)-5-(1-methyl-5-(trifluoromethyl)-1H-pyrazol-3-yl)pyridin-4-yl)amino)-1-methylcyclohexan-1-ol], for which the pIC50 in test [1] (setting [6]) was 8.59; in test [2] (setting [7]) it was 8.17; in test [3] (setting [8]), 7.92; in test [4] (setting [9]), 8.64; in test [5] (setting [10]), 6.85.

Source of the values: patent US12258327B2, “5-membered heteroaryl-containing aminopyridine compounds as EGFR inhibitors” (YUHAN CORPORATION, priority 2021, dated 2025).
